Measurements reported in patent US20070202547A1, “Methods For Detecting Substances Which Bind To The Amyloid Precursor Protein Or Beta Amyloid Fragments, And Binding Compounds” (priority 2004, published 2007).

Legend:
gamma-secretase = gamma-secretase (Homo sapiens, UniProt P05067); experiment: Gamma-secretase cleavage of CTFβ substrate (HeLa cell membrane extract); assay type: biochemical; settings: Aβ40 detection with 6E-10/G2-10, read-out: CTFβ CLEAVAGE AT POSITION 40
Protocol: Accordingly, Examples 1-4 were tested for their ability to inhibit gamma-secretase cleavage of both a full-length CTFβ substrate, as described in Li, 2000, Proc. Natl Acad Sci. 97:6138-6143. The assays were carried out as follows:
Inhibition of CTFβ Cleavage
• 10 μL 10× protease inhibitor cocktail (Roche, cat # 1836153) • 25 μL 4× Buffer (50 mM PIPES pH7.0, 150 mM KCl, 5 mM MgCl2, 5 mM CaCl2) • 2 μL 10% CHAPSO • 5 μL HeLa cell membrane extract characterized for gamma-secretase activity • 7 μL 25 μM bacterially expressed CTFβ • 51 μL water • 1 μL compound in DMSO The reactions were incubated at 37° C. for 150 min and quenched with 25 μL 5× RIPA buffer (750mM NaCl, 5% NP-40, 2.5% DOC, 0.5% SDS, 250 mM Tris H8.0). Detection:
Gamma-secretase cleavage of the CTFβ substrate was assessed by incubating 50 μL of the reaction with 25 μL of 4 μg/mL biotinylated antibody 6E-10 which is specific for the N-terminal region of Aβ, and 25 μL of 1.5 μg/mL of a ruthinylated antibody G2-10, which is specific to the C-terminal region of Aβ40. The C-terminal region is present only after gamma secretase cleavage of Aβ. The antibodies were allowed to bind overnight at room temperature. The following day, 25 μL of 80 μg/mL streptavidin-coated Dynabeads (M-280) were added to each reaction, allowed to bind for 30 minutes, and quenched with 275 μL IGEN assay buffer. Quantification of the gamma-secretase cleavage products was carried out using an Origen Analyzer.

APP variant = experiment: Antibody-masking ALPHA assay on biotinylated APP variant (Examples 5A/5B); assay type: binding; settings: antibody to C-terminal region of Aβ (5A) and LN27 to N-terminal region of APP (5B); pH 4.5, 37° C., 1 hour
Protocol: A biotinylated APP variant (400 nM) was combined with Examples 1-3 under assay conditions (50 mM sodium acetate, pH 4.5; 1x Protease Inhibitor cocktail (Roche cat # 1836153); 100 μg/mL bovine serum albumin, 0.2% CHAPS). Incubations with vehicle, including DMSO (compound diluent), and incubations lacking the APP variant were carried out as controls for each experiment. Each mixture was incubated at 37° C. for 1 hour.
Thereafter, 70 μL of each incubation mixture was placed in its own well of a 96-well plate. 5 μL of 1 M Tris-Cl, pH 8.0 was added to each well to neutralize any binding reaction.
In Example 5A, a mixture of ALPHA beads was prepared from
(1) 20 μg/mL streptavidin donor beads;
(2) 20 μg/mL Protein A acceptor beads (from AlphaScreen General IgG (Protein A) Detection Kit Perkin Elmer Life Sciences; 10,000 pts (Part Number 6760617M)), containing 150 ng/mL of a rabbit polyclonal antibody directed against the C-terminal region of Aβ; and
(3) 0.1 % bovine serum albumin.
The beads were combined in a phosphate buffered saline.
In Example 5B, a mixture of ALPHA beads was prepared from […]
The following day, the plates were read using ALPHAQUEST, to measure the degree of binding of the antibodies. […]

Chain of gamma-secretase (P05067 whole entry): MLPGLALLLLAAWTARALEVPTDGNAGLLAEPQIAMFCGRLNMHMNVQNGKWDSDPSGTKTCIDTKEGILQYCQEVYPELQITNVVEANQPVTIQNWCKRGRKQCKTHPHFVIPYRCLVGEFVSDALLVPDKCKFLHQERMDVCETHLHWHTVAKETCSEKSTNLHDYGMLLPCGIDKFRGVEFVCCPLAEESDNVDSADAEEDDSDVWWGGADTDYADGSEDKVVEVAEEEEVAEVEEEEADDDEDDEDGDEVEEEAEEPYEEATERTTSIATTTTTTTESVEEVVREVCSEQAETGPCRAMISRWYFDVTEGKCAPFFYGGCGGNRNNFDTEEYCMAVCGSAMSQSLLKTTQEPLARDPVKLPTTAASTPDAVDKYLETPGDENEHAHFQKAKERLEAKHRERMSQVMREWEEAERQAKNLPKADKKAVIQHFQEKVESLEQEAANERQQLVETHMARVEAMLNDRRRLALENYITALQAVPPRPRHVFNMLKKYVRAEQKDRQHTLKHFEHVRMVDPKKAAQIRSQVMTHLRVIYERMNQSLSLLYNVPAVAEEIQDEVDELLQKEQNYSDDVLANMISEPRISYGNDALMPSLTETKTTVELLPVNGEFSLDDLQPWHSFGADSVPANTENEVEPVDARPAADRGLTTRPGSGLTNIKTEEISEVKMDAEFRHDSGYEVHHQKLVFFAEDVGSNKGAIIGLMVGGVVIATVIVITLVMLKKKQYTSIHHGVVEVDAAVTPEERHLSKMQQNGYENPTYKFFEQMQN

Compound	IC50 (gamma-secretase) [µM]	interaction with the APP variant near the antibody binding sites (APP variant)
O=C(O)COc1cc2c(cc1CCCOc1ccccc1)OC(CCc1ccccc1)C2 (stereo not shown) [Example 1, {[6-(3-phenoxypropyl)-2-(2-phenylethyl)-2,3-dihydro-1-benzofuran-5-yl]oxy} acetic acid]	29	interacted with the APP variant within its Aβ domain, proximal to the C-terminal binding site
O=C(O)COc1cc2c(cc1CCCOc1ccccc1Cl)OC(CCc1ccccc1)C2 (stereo not shown) [Example 2, {[6-[3-(2chlorophenoxy)propyl)-2-(2-phenylethyl)-2,3-dihydro-1-benzofuran-5-yl]oxy} acetic]	8	interacted with the APP variant within its Aβ domain, proximal to the C-terminal binding site
